Test results reported in ChEMBL document CHEMBL1221319, “Synthesis and biological evaluation of vitamin K derivatives as angiogenesis inhibitor” (Bioorg Med Chem, 2010).
Calls of active or inactive are those of the source. The calls are words filed in the database; no cut-off is given here.

Key:
[1] = tested on: HUVEC; test: Antiproliferative activity against HUVEC at 5 to 100 uM after 72 hrs by WST-1 assay; type: functional, cell-based; conditions: Homo sapiens
[2] = Cytotoxicity against HDF; conditions: human
[3] = tested on: Aorta; test: Ex vivo antiangiogenic activity in Wistar rat aortic ring assessed as inhibition of angiogenesis after 7 days by phase-contrast microscopy; type: functional, tissue-based
[4] = tested on: Aorta; test: Ex vivo antiangiogenic activity in Wistar rat aortic ring assessed as decrease of microvessel length at 100 uM after 7 days by phase-contrast microscopy; type: functional, tissue-based
[5] = tested on: Aorta; test: Ex vivo antiangiogenic activity in Wistar rat aortic ring assessed as inhibition of angiogenesis at 50 uM after 7 days by phase-contrast microscopy; type: functional
[6] = tested on: Aorta; test: Ex vivo antiangiogenic activity in Wistar rat aortic ring assessed as inhibition of angiogenesis at 100 uM after 7 days by phase-contrast microscopy; type: functional, tissue-based
[7] = tested on: HCT-116; test: Cytotoxicity against human HCT116 cells; type: functional
[8] = tested on: HUVEC; test: Inhibition of VEGF-induced HUVEC migration at 100 uM after 6 hrs by gelatin-coated Boyden chamber assay; type: functional, cell-based; conditions: Homo sapiens
[9] = tested on: HUVEC; test: Antiangiogenic activity in HUVEC assessed as reduction of tube formation at 100 uM after 12 hrs by phase-contrast microscopy; type: functional, cell-based; conditions: Homo sapiens

Row | Structure (SMILES) | Activity [4] | Activity [6] | other results
1 | CCCNC1=C(C)C(=O)c2ccccc2C1=O | Active | Active | Activity [1]: Active; Activity [2]: > 100 µM; Activity [3]: Dose-dependent effect; Activity [5]: >50 µM; Activity [7]: >100 µM; inhibition [8]: inactive; Activity [9]: Active
2 | CC1=C(Br)C(=O)c2ccccc2C1=O | – | Active | –
3 | CCC1=C(C)C(=O)c2ccccc2C1=O | – | Active | –
4 | CCCCCCCCCNC1=C(C)C(=O)c2ccccc2C1=O | inactive | inactive | –
5 | CCCCC1=C(C)C(=O)c2ccccc2C1=O | Active | inactive | –
6 | CC1=C(C2=C(C)C(=O)c3ccccc3C2=O)C(=O)c2ccccc2C1=O | – | inactive | –
7 | CNC1=C(C)C(=O)c2ccccc2C1=O | – | Active | –
8 | CCCCCCCCCCC1=C(C)C(=O)c2ccccc2C1=O | inactive | inactive | –
9 | CCCCCCNC1=C(C)C(=O)c2ccccc2C1=O | inactive | inactive | –
10 | CCCCCCCC1=C(C)C(=O)c2ccccc2C1=O | inactive | inactive | –
